PubChem BioAssay (NCI)
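A five-concentration, 48-hour dose response in 96-well plates underlies each endpoint, interpolated linearly between surrounding concentrations. GI50 is the concentration that inhibits growth by half. TGI denotes the concentration required for complete inhibition of growth.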

Experiments:
Test in all cases: NCI tumour cell line growth inhibition, 48 h
[1] = system: SK-OV-3 ovarian
[2] = system: NCI-H226 lung
[3] = system: SK-MEL-5 melanoma
[4] = system: MOLT-4 leukemia
[5] = system: 786-0 renal
[6] = system: HCC-2998 colon
[7] = system: IGROV1 ovarian
[8] = system: HL-60(TB) leukemia
[9] = system: HCT-116 colon

CCN(CC)C(=S)N/N=C(\C)c1ccccc1O
TGI [1]: 79 µM
TGI [2]: 56.8 µM
TGI [3]: 51.9 µM
TGI [4]: > 100 µM
TGI [5]: > 100 µM
TGI [6]: > 100 µM
TGI [7]: > 100 µM
TGI [8]: > 100 µM

COc1cc2c(cc1OC)[C@@H](C(O)c1ccccc1)NCC2 (stereo partly specified)
TGI [1]: > 100 µM
TGI [2]: > 100 µM
TGI [3]: > 100 µM
TGI [4]: > 100 µM
TGI [5]: > 100 µM
TGI [6]: > 100 µM
TGI [9]: > 100 µM
TGI [7]: > 100 µM
TGI [8]: > 100 µM

NC(=NC1CCCCCC1)c1ccc(N2CCN(c3ccc(C(N)=NC4CCCCCC4)cc3)CC2)cc1
GI50 [1]: 15.7 µM
TGI [1]: 44.9 µM
GI50 [2]: 7.64 µM
TGI [2]: 28.9 µM
GI50 [3]: 1.33 µM
TGI [3]: 6.76 µM
GI50 [4]: 23.9 µM
TGI [4]: > 50 µM
GI50 [5]: 10.7 µM
TGI [5]: 43.9 µM
GI50 [6]: 8.9 µM
TGI [6]: > 50 µM
GI50 [9]: 10.2 µM
TGI [9]: 48.8 µM
GI50 [8]: 14.1 µM
TGI [8]: > 50 µM

O=Cc1[nH]c2ccccc2c1Br
TGI [1]: 44.9 µM
TGI [2]: > 100 µM
TGI [3]: 31.1 µM
TGI [4]: 68.6 µM
TGI [5]: 66.3 µM
TGI [6]: > 100 µM
TGI [9]: 38.1 µM
TGI [7]: 70.2 µM
TGI [8]: 51.8 µM

CCCCC(=O)[O-].N.N.N.N.N.[Co+3].[O-][Cl+3]([O-])([O-])[O-]
GI50 [1]: > 100 µM
TGI [1]: > 100 µM
GI50 [3]: > 100 µM
TGI [3]: > 100 µM
GI50 [4]: > 100 µM
TGI [4]: > 100 µM
GI50 [5]: > 100 µM
TGI [5]: > 100 µM
GI50 [6]: > 100 µM
TGI [6]: > 100 µM
GI50 [9]: > 100 µM
TGI [9]: > 100 µM
GI50 [7]: > 100 µM
TGI [7]: > 100 µM

CC(=O)OC[C@@H]1[C@H]2CC(=O)O[C@H]2C[C@H]1OC(C)=O
TGI [1]: > 100 µM
TGI [3]: > 100 µM
TGI [4]: > 100 µM
TGI [5]: > 100 µM
TGI [6]: > 100 µM
TGI [9]: > 100 µM
TGI [7]: > 100 µM
TGI [8]: > 100 µM

CC(C)(C)C(=O)C(c1ccc(-c2cscn2)cc1)c1ccc(-c2cscn2)cc1
TGI [1]: 65.3 µM
TGI [2]: > 78.7 µM
TGI [3]: > 100 µM
TGI [4]: > 100 µM
TGI [5]: 78.7 µM
TGI [6]: > 100 µM
TGI [9]: > 100 µM
TGI [7]: > 100 µM
TGI [8]: > 100 µM

c1ccc2[nH]c(-c3ccc(OCCCCCOc4ccc(-c5nc6ccccc6[nH]5)cc4)cc3)nc2c1
GI50 [1]: 6.39 µM
TGI [1]: 17.5 µM
GI50 [2]: 21.3 µM
TGI [2]: 55.9 µM
GI50 [3]: 1.15 µM
TGI [3]: 4.94 µM
GI50 [4]: 1.07 µM
TGI [4]: 3.48 µM
GI50 [5]: 2.28 µM
TGI [5]: 5.92 µM
GI50 [6]: 2.31 µM
TGI [6]: 7.59 µM
GI50 [9]: 1.25 µM
TGI [9]: 3.87 µM
GI50 [8]: 1.28 µM
TGI [8]: 3.29 µM

CC(=S)NNC(=O)c1ccncc1
TGI [1]: > 100 µM
TGI [2]: > 100 µM
TGI [3]: > 100 µM
TGI [4]: > 100 µM
TGI [5]: > 100 µM
TGI [6]: > 100 µM
TGI [9]: > 100 µM
TGI [7]: > 100 µM
TGI [8]: > 100 µM

CN(C)c1ccc(/C=C2\N=C(c3ccc(N)cc3)OC2=O)cc1
TGI [1]: > 100 µM
TGI [2]: > 100 µM
TGI [3]: > 100 µM
TGI [4]: > 100 µM
TGI [5]: > 100 µM
TGI [6]: > 100 µM
TGI [7]: > 100 µM
TGI [8]: > 100 µM

CCOC(=O)NC(=O)c1cn(CCCOC(=O)CCCCCCCCC(=O)OCCCn2cc(C(=O)NC(=O)OCC)c(=O)[nH]c2=O)c(=O)[nH]c1=O
TGI [1]: > 100 µM
TGI [3]: > 100 µM
TGI [4]: 95.9 µM
TGI [5]: 84.5 µM
TGI [6]: 44.8 µM
TGI [9]: > 100 µM
TGI [7]: 58.1 µM
TGI [8]: 26.4 µM

O=C(O)c1ccc([N+](=O)[O-])c2c(=O)c3ccccc3[nH]c12
TGI [1]: > 100 µM
TGI [3]: > 100 µM
TGI [4]: > 100 µM
TGI [5]: > 100 µM
TGI [6]: > 100 µM
TGI [9]: > 100 µM
TGI [7]: > 100 µM
TGI [8]: > 100 µM

CC(=O)O[C@@H]1CC(C)C2CC2C2=C(C(O)OC2O)[C@@H]1C(C)CCC=C(C)C (stereo partly specified)
TGI [2]: 36.5 µM
TGI [3]: 60.6 µM
TGI [4]: 54.5 µM
TGI [5]: 40.3 µM
TGI [6]: 40.5 µM
TGI [9]: 32.7 µM
TGI [7]: 51.1 µM
TGI [8]: 43.1 µM

O[C@]12CCCC[C@H]1CCC2
TGI [1]: > 100 µM
TGI [3]: > 100 µM
TGI [4]: > 100 µM
TGI [5]: > 100 µM
TGI [6]: > 100 µM
TGI [9]: > 100 µM
TGI [7]: > 100 µM
TGI [8]: > 100 µM

N#CC1(c2nc3ccccc3o2)C(=O)C(=O)N(c2ccc(Cl)c(Cl)c2)C(=O)C1=O
TGI [2]: > 100 µM
TGI [3]: > 100 µM
TGI [4]: > 100 µM
TGI [5]: > 100 µM
TGI [6]: > 100 µM
TGI [8]: > 100 µM

O=C1NC2(O)c3ccccc3C(=O)C2(O)N1c1ccccc1 (stereo unspecified)
TGI [1]: > 100 µM
TGI [4]: > 100 µM
TGI [5]: > 100 µM
TGI [6]: > 100 µM
TGI [9]: > 100 µM
TGI [7]: > 100 µM
TGI [8]: > 100 µM

CC1OC(OC2C(Oc3cc(O)c4c(=O)cc(-c5ccc(O)cc5)oc4c3)OC(CO)C(O)C2O)C(O)C(O)C1O (stereo unspecified)
TGI [1]: > 100 µM
TGI [3]: > 100 µM
TGI [4]: > 100 µM
TGI [5]: > 100 µM
TGI [9]: > 100 µM
TGI [7]: > 100 µM
TGI [8]: > 100 µM

C=CCN=C1N=C(CC(=O)OCC)CS1
TGI [1]: > 100 µM
TGI [2]: > 100 µM
TGI [3]: > 100 µM
TGI [5]: > 100 µM
TGI [6]: > 100 µM
TGI [9]: > 100 µM
TGI [7]: > 100 µM
TGI [8]: > 100 µM
